Values joined by “and” are separate entries in the source; they are usually repeats but may differ in a detail not shown here. Equal values may be shown once. Inconclusive results and toxic doses are left out. Rule for the calls: active = survival T/C of 150% or more; inactive = T/C below 125% in these data.
Test system: BDF1 mice, intracerebral L1210 leukemia, survival T/C
Assay: NCI In Vivo Anticancer Drug Screen. Data for tumor model L1210 Leukemia (intracerebral) in B6D2F1 (BDF1) mice
Conditions: endpoint: mean survival time, higher = longer survival
Procedure, shortened: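 Readout is the T/C ratio: survival of compound-treated animals over that of vehicle-treated controls, in mice bearing transplantable tumour.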

Measured: T/C

O=NN(CCCl)C(=O)NC1CCCCC1
inactive: dose: 1.0 mg/kg/injection, schedule: Q01DX001 (ip), vehicle: saline 101 % of control | dose: 1.0 mg/kg/injection, schedule: Q01DX001 (oral), vehicle: saline 91 % of control | dose: 1.0 mg/kg/injection, schedule: Q01DX Z (ip), vehicle: carboxymethylcellulose (CMC) 103 % of control and 116 % of control | dose: 2.0 mg/kg/injection, schedule: Q01DX009 (ip), vehicle: carboxymethylcellulose (CMC) 106 % of control | dose: 2.0 mg/kg/injection, schedule: Q01DX Z (ip), vehicle: carboxymethylcellulose (CMC) 104 % of control and 108 % of control | dose: 4.0 mg/kg/injection, schedule: Q01DX Z (ip), vehicle: carboxymethylcellulose (CMC) 118 % of control | dose: 5.0 mg/kg/injection, schedule: Q01DX001 (ip), vehicle: carboxymethylcellulose (CMC) 115 % of control | dose: 5.1 mg/kg/injection, schedule: Q01DX001 (ip), vehicle: carboxymethylcellulose (CMC) 111 % of control and 120 % of control | dose: 10.0 mg/kg/injection, schedule: Q01DX001 (ip), vehicle: saline 113 % of control | dose: 10.0 mg/kg/injection, schedule: Q01DX001 (oral), vehicle: saline 115 % of control | dose: 14.0 mg/kg/injection, schedule: Q01DX001 (ip), vehicle: carboxymethylcellulose (CMC) 114 % of control and 122 % of control | dose: 62.0 mg/kg/injection, schedule: Q01DX Z (ip), vehicle: carboxymethylcellulose (CMC) 91 % of control and 94 % of control | dose: 70.0 mg/kg/injection, schedule: Q01DX001 (ip), vehicle: saline 109 % of control | dose: 97.0 mg/kg/injection, schedule: Q01DX001 (oral), vehicle: carboxymethylcellulose (CMC) 120 % of control and 122 % of control | dose: 100.0 mg/kg/injection, schedule: Q01DX001 (ip), vehicle: carboxymethylcellulose (CMC) 103 % of control | dose: 100.0 mg/kg/injection, schedule: Q01DX001 (ip), vehicle: saline 89 % of control | dose: 100.0 mg/kg/injection, schedule: Q01DX001 (oral), vehicle: saline 102 % of control
active: dose: 8.0 mg/kg/injection, schedule: Q01DX009 (ip), vehicle: carboxymethylcellulose (CMC) 212 % of control | dose: 8.0 mg/kg/injection, schedule: Q01DX Z (ip), vehicle: carboxymethylcellulose (CMC) 202 % of control | dose: 12.0 mg/kg/injection, schedule: Q01DX Z (ip), vehicle: carboxymethylcellulose (CMC) 213 % of control | dose: 12.5 mg/kg/injection, schedule: Q01DX001 (ip), vehicle: carboxymethylcellulose (CMC) 166 % of control and 176 % of control | dose: 16.0 mg/kg/injection, schedule: Q01DX009 (ip), vehicle: carboxymethylcellulose (CMC) 302 % of control | dose: 16.0 mg/kg/injection, schedule: Q01DX Z (ip), vehicle: carboxymethylcellulose (CMC) 152 % of control and 162 % of control | dose: 20.0 mg/kg/injection, schedule: Q01DX001 (ip), vehicle: carboxymethylcellulose (CMC) 292 % of control | dose: 24.25 mg/kg/injection, schedule: Q01DX001 (oral), vehicle: carboxymethylcellulose (CMC) 266 % of control and 288 % of control and 339 % of control | dose: 25.0 mg/kg/injection, schedule: Q01DX001 (ip), vehicle: saline 231 % of control | dose: 25.0 mg/kg/injection, schedule: Q01DX001 (oral), vehicle: saline 243 % of control | dose: 30.0 mg/kg/injection, schedule: Q01DX001 (ip), vehicle: carboxymethylcellulose (CMC) 240 % of control and 321 % of control | dose: 30.0 mg/kg/injection, schedule: Q01DX001 (ip), vehicle: saline 322 % of control | dose: 31.0 mg/kg/injection, schedule: Q01DX Z (ip), vehicle: carboxymethylcellulose (CMC) 152 % of control | dose: 32.0 mg/kg/injection, schedule: Q01DX001 (ip), vehicle: carboxymethylcellulose (CMC) 165 % of control and 246 % of control | dose: 33.0 mg/kg/injection, schedule: Q01DX001 (ip), vehicle: carboxymethylcellulose (CMC) 459 % of control | dose: 36.0 mg/kg/injection, schedule: Q01DX001 (ip), vehicle: carboxymethylcellulose (CMC) 277 % of control | dose: 37.5 mg/kg/injection, schedule: Q01DX001 (ip), vehicle: carboxymethylcellulose (CMC) 269 % of control | dose: 40.0 mg/kg/injection, schedule: Q01DX001 (ip), vehicle: saline 240 % of control | dose: 43.0 mg/kg/injection, schedule: Q01DX001 (ip), vehicle: carboxymethylcellulose (CMC) 481 % of control and 731 % of control | dose: 45.0 mg/kg/injection, schedule: Q01DX001 (ip), vehicle: carboxymethylcellulose (CMC) 189 % of control | dose: 48.0 mg/kg/injection, schedule: Q01DX001 (ip), vehicle: carboxymethylcellulose (CMC) 274 % of control and 306 % of control | dose: 48.5 mg/kg/injection, schedule: Q01DX001 (oral), vehicle: carboxymethylcellulose (CMC) 278 % of control and 337 % of control and 420 % of control | dose: 50.0 mg/kg/injection, schedule: Q01DX001 (ip), vehicle: saline 218 % of control and 277 % of control | dose: 50.0 mg/kg/injection, schedule: Q01DX001 (oral), vehicle: saline 255 % of control | dose: 55.0 mg/kg/injection, schedule: Q01DX001 (ip), vehicle: carboxymethylcellulose (CMC) 473 % of control | dose: 60.0 mg/kg/injection, schedule: Q01DX001 (ip), vehicle: carboxymethylcellulose (CMC) 359 % of control and 414 % of control and 463 % of control | dose: 60.0 mg/kg/injection, schedule: Q01DX001 (ip), vehicle: saline 227 % of control | dose: 70.0 mg/kg/injection, schedule: Q01DX001 (ip), vehicle: carboxymethylcellulose (CMC) 267 % of control | dose: 72.0 mg/kg/injection, schedule: Q01DX001 (ip), vehicle: carboxymethylcellulose (CMC) 208 % of control and 284 % of control and 293 % of control | dose: 75.0 mg/kg/injection, schedule: Q01DX001 (ip), vehicle: carboxymethylcellulose (CMC) 294 % of control | dose: 75.0 mg/kg/injection, schedule: Q01DX001 (ip), vehicle: saline 276 % of control | dose: 75.0 mg/kg/injection, schedule: Q01DX001 (oral), vehicle: saline 208 % of control | dose: 80.0 mg/kg/injection, schedule: Q01DX001 (ip), vehicle: carboxymethylcellulose (CMC) 184 % of control | dose: 86.0 mg/kg/injection, schedule: Q01DX001 (ip), vehicle: carboxymethylcellulose (CMC) 184 % of control and 211 % of control

Cc1ccc(S(=O)(=O)NC(=O)N(CCCl)N=O)cc1
inactive: dose: 31.0 mg/kg/injection, schedule: Q01DX001 (ip), vehicle: other 119 % of control | dose: 62.0 mg/kg/injection, schedule: Q01DX001 (ip), vehicle: other 116 % of control | dose: 140.0 mg/kg/injection, schedule: Q01DX001 (ip), vehicle: other 115 % of control

O=NN(CCF)C(=O)NC1CCS(=O)(=O)CC1
active: dose: 4.8 mg/kg/injection, schedule: Q01DX001 (oral), vehicle: other 181 % of control | dose: 7.0 mg/kg/injection, schedule: Q01DX001 (ip), vehicle: other 165 % of control | dose: 7.5 mg/kg/injection, schedule: Q01DX001 (ip), vehicle: other 163 % of control | dose: 10.0 mg/kg/injection, schedule: Q01DX001 (ip), vehicle: other 183 % of control | dose: 11.0 mg/kg/injection, schedule: Q01DX001 (ip), vehicle: other 191 % of control | dose: 11.0 mg/kg/injection, schedule: Q01DX001 (oral), vehicle: other 200 % of control and 315 % of control | dose: 12.0 mg/kg/injection, schedule: Q01DX001 (ip), vehicle: other 150 % of control and 214 % of control | dose: 15.0 mg/kg/injection, schedule: Q01DX001 (ip), vehicle: other 202 % of control | dose: 16.0 mg/kg/injection, schedule: Q01DX001 (ip), vehicle: other 284 % of control | dose: 20.0 mg/kg/injection, schedule: Q01DX001 (ip), vehicle: other 322 % of control | dose: 21.0 mg/kg/injection, schedule: Q01DX001 (oral), vehicle: other 477 % of control and 662 % of control | dose: 24.0 mg/kg/injection, schedule: Q01DX001 (ip), vehicle: other 341 % of control and 410 % of control and 463 % of control | dose: 30.0 mg/kg/injection, schedule: Q01DX001 (ip), vehicle: other 348 % of control | dose: 40.0 mg/kg/injection, schedule: Q01DX001 (ip), vehicle: other 305 % of control | dose: 40.0 mg/kg/injection, schedule: Q01DX001 (oral), vehicle: other 456 % of control and 486 % of control | dose: 48.0 mg/kg/injection, schedule: Q01DX001 (ip), vehicle: other 354 % of control
inactive: dose: 2.5 mg/kg/injection, schedule: Q01DX001 (ip), vehicle: other 111 % of control | dose: 2.9 mg/kg/injection, schedule: Q01DX001 (ip), vehicle: other 108 % of control and 114 % of control | dose: 3.75 mg/kg/injection, schedule: Q01DX001 (ip), vehicle: other 118 % of control | dose: 5.0 mg/kg/injection, schedule: Q01DX001 (ip), vehicle: other 124 % of control | dose: 6.0 mg/kg/injection, schedule: Q01DX001 (ip), vehicle: other 121 % of control | dose: 80.0 mg/kg/injection, schedule: Q01DX001 (oral), vehicle: other 86 % of control

O=NN(CCCl)C(=O)Nc1ccc(SCC(=O)O)cc1
inactive: dose: 12.0 mg/kg/injection, schedule: Q01DX001 (ip), vehicle: carboxymethylcellulose (CMC) 95 % of control | dose: 18.0 mg/kg/injection, schedule: Q01DX001 (ip), vehicle: carboxymethylcellulose (CMC) 96 % of control | dose: 26.0 mg/kg/injection, schedule: Q01DX001 (ip), vehicle: carboxymethylcellulose (CMC) 88 % of control

From PubChem BioAssay AID252 (DTP/NCI, 2004)
